“And” between values parts separate entries of the source, which are not always exact repeats. Identical values can stand only once. Like-named read-outs stand apart in the source and are kept apart here.
Key:
C. glabrata CBS138 = test: MIC determination, C. glabrata; assay type: cell-based, Candida glabrata; conditions: RPMIG, 24 h, 35 °C
Excerpt: (§1) The bacterial strains Escherichia coli ATCC25922 and Staphylococcus aureus Newman were used in this work and maintained in Lennox Broth (LB) solid medium, composed of 10 g/L tryptone, 5 g/L yeast extract, 5 g/L NaCl and 20 g/L agar. The fungal strains Candida albicans SC5134 and C. glabrata CBS138 were used in this work and maintained in YPD solid medium, composed of 20 g/L glucose, 20 g/L peptone, 10 g/L yeast extract and 15 g/L agar. The strains were isolated from human infections.
(§2) The antimicrobial activity of the complexes towards the bacterial and fungal strains was assessed by the determination of the Minimal Inhibitory Concentration (MIC) of each complex towards the indicated microbial strains, based on standard methods, and as previously described. […] Serial 1:2 dilutions of stock solutions were prepared for each complex in Mueller–Hinton (MH) broth (Fluka Analytical) or RPMI-1640 medium (Sigma) supplemented with 20 g/L glucose and buffered with 0.165 M morpholinepropanesulphonic acid (RPMIG) to pH 7.0. Solutions prepared with MH were used for testing bacteria, while those prepared with RPMIG were used for testing fungi. For antibacterial activity assays, the final concentrations ranged from 250 to 0.24 μg/mL (when stock solution final concentration was 10 mg/mL), 125 μg/mL to 0.12 μg/mL (when stock solution final concentration was 5 mg/mL) and 62.5 to 0.06 μg/mL (when stock solution final concentration was 2.5 mg/mL). For antifungal assays, the final concentrations ranged from 125 μg/mL to 0.12 μg/mL (when stock solution final concentration was 10 mg/mL), 62.5 to 0.06 μg/mL (when stock solution final concentration was 5 mg/mL) and 31.25 to 0.03 μg/mL (when stock solution final concentration was 2.5 mg/mL). Then, 100 μL aliquots of adequately diluted bacterial suspensions of S. aureus Newman or E. coli ATCC 25922 were mixed with the MH serially diluted complexes aliquots to obtain 5 × 10^5 CFU/mL. In the case of fungi, cultures were diluted to obtain a final optical density of 0.025, measured at 530 nm (OD530). Bacterial suspensions were prepared from cultures grown for 5 h in MH broth at 37 °C and 250 rev·min^−1 and adequately diluted with fresh MH medium, while fungal suspensions were prepared from overnight cultures grown in YPD broth at 30 °C and 250 rev.min^−1 and diluted in buffered RPMIG. After 22 h of incubation at 37 °C (bacteria) or 24 h at 35 °C (fungi), the wells’ content was resuspended by pipetting and the OD640 (bacteria) or OD530 (fungi) were measured in a SPECTROstar Nano microplate reader (BMG Labtech).
(§3) At least three independent experiments were performed in duplicate for each complex under study. […] Positive (no complex) and negative controls (no inoculum) were performed for each experiment. The effect of 5% (V/V) DMSO on microbial growth was also assessed.

E. coli ATCC25922 = test: MIC determination, E. coli; assay type: cell-based, Escherichia coli; conditions: MH broth, 22 h, 37 °C
Excerpt: as §1, §2, §3

C. albicans SC5134 = test: MIC determination, C. albicans; assay type: cell-based, Candida albicans; conditions: RPMIG, 24 h, 35 °C
Excerpt: as §1, §2, §3

[1] = test system: A2780 ovarian cancer cells; test: MTT cytotoxicity assay in A2780 (cisplatin sensitive) ovarian cancer cells; assay type: cell-based, human
How it was run: (§4)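 Cells in RPMI-1640 with 10% FBS exposed to complexes at 0.01–100 μM for 24 and/or 48 h at 37 °C. Viability by colorimetric MTT; IC50 derived from dose–response curves.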

TZM-bl cells = test: alamarBlue cytotoxicity in TZM-bl cells; assay type: cell-based
Method: The in vitro cytotoxicity of auranofin, [P][AuSBu(=S)] and [P][AuSEt(=S)] was evaluated in TZM-bl cells using alamarBlue cell viability reagent (Life Technologies, Carlsbad, CA, USA). TZM-bl cells (AIDS Research and Reference Reagent Program, National Institutes of Health, Bethesda, MD, USA) were cultured in complete growth medium that consists of Dulbecco’s minimal essential medium (DMEM) supplemented with 10% fetal bovine serum (FBS), 100 U/ml of penicillin-streptomycin (Gibco/Invitrogen, Waltham, MA, USA), 1 mM of sodium pyruvate (Gibco/Invitrogen, Carlsbad, CA, USA), 2 mM of L-glutamine (Gibco/Invitrogen, USA) and 1 mM of non-essential amino acids (Gibco/Invitrogen, USA). Cells were cultured in the presence and absence of serial-fold dilutions of the compounds. At least two independent experiments were performed for each cytotoxicity analysis. Each dilution of each compound was performed in triplicate wells. For each assay we had medium controls (only growth medium), cell controls (cells without test compound) and cytotoxicity controls (a compound that kill cells). The cytotoxicity of each compound was expressed by the 50% cytotoxic concentration (CC50), which is the concentration of compound causing 50% decrease in cellular viability.

[2] = test system: OVCAR8 ovarian cancer cells; test: MTT cytotoxicity assay in OVCAR8 (cisplatin resistant) ovarian cancer cells; assay type: cell-based, human; conditions: 48 h incubation
How it was run: as §4

S. aureus Newman = test: MIC determination, S. aureus; assay type: cell-based, Staphylococcus aureus; conditions: MH broth, 22 h, 37 °C
Excerpt: as §1, §2, §3

[3] = 24 h incubation, read-out: IC50 A2780, 24 h
[4] = 48 h incubation, read-out: IC50 A2780, 48 h

| SMILES | MIC C. glabrata CBS138 (C. glabrata CBS138) [µg/mL] | MIC E. coli ATCC25922 (E. coli ATCC25922) | MIC C. albicans SC5134 (C. albicans SC5134) | IC50 [1, 3] [nM] | IC50 [1, 4] [nM] | CC50 (TZM-bl cells) | cytotoxicity in TZM-bl culture cells (TZM-bl cells) | IC50 [2] [nM] | MIC S. aureus Newman (S. aureus Newman) | CC50 (TZM-bl cells; TZM-bl cells, alamarBlue, read-out: CC50) [nM] |
| --- | --- | --- | --- | --- | --- | --- | --- | --- | --- | --- |
| CCn1c2c(sc1=S)[S][Au-]1([S]c3sc(=S)n(CC)c3[S]1)[S]2.c1ccc([P+](c2ccccc2)(c2ccccc2)c2ccccc2)cc1 [[P][AuSEt(=S)]] | >62.5 | >125 µg/mL | >62.5 µg/mL | 580 ± 200 | 180 | 4920 nM | No significant cytotoxicity | 850 ± 190 | >125 µg/mL |  |
| CCCCn1c2c(sc1=S)[S][Au-]1([S]c3sc(=S)n(CCCC)c3[S]1)[S]2.c1ccc([P+](c2ccccc2)(c2ccccc2)c2ccccc2)cc1 [[P][AuSBu(=S)]] | >62.5 | >125 µg/mL | >62.5 µg/mL | 1380 ± 280 | 950 ± 50 | not possible to calculate | No significant cytotoxicity | 1410 ± 560 | >125 µg/mL |  |
| CCn1c2c(sc1=[Se])[S][Au-]1([S]c3sc(=[Se])n(CC)c3[S]1)[S]2.c1ccc([P+](c2ccccc2)(c2ccccc2)c2ccccc2)cc1 [[P][AuSEt(=Se)]] | >62.5 | >125 µg/mL | >62.5 µg/mL | 710 ± 120 | 220 ± 110 |  |  | 970 ± 180 | >125 µg/mL |  |
| CC(C)n1c2c(sc1=S)[Se][Au-]1([Se]c3sc(=S)n(C(C)C)c3[Se]1)[Se]2.c1ccc([P+](c2ccccc2)(c2ccccc2)c2ccccc2)cc1 [[P][AuSeiPr(=S)]] | >31.25 | >62.5 µg/mL | >31.25 µg/mL | 3740 ± 1220 | 680 ± 180 |  |  | 3860 ± 910 | >62.5 µg/mL |  |
| CC(=O)OC[C@H]1O[C@@H]([S-])[C@H](OC(C)=O)[C@@H](OC(C)=O)[C@@H]1OC(C)=O.CCP(CC)CC.[Au+] [Auranofin, reference compound] | 15.2 ± 0.6 | 35.5 µg/mL and 35.5 ± 0.6 µg/mL | 7.9 µg/mL and 7.9 ± 0.5 µg/mL | 2010 ± 710 |  |  |  | 1040 ± 410 | 0.2 µg/mL and 0.173 ± 0.004 µg/mL | 3210 |
